Measured values: ChEMBL document CHEMBL1125503, “Preparation and structure-activity relationships of simplified analogues of the antifungal agent cilofungin: a total synthesis approach” (J Med Chem, 1992)
pIC50: −log10 of the molar value. ≈ marks a conversion by molar mass, not a printed value. Starred links: 1 amine or outer side, 2 acyl side, 3 side chain; linkers in the order of their positions; H or OH if unused. Positions of bridges follow the written chain, without caps; N, C: chain ends. Non-standard residues stand in square brackets, D forms with d. Residues, ends and D or L forms follow the SMILES beside them. *: point of attachment. Orn(4R-OH,5R-OH) = O=C([C@H](C[C@@H](O)[C@@H](O)N[*:3])N[*:1])[*:2]; hTyr(3S-OH,4S-OH) = N[C@H](C(=O)O)[C@H](O)[C@@H](O)c1ccc(O)cc1; Pro(3S-OH,4S-Me) = C[C@H]1CN[C@H](C(=O)O)[C@H]1O; Benzoyl(4-octyloxy) = CCCCCCCCOc1ccc(C(=O)*)cc1; hTyr = N[C@@H](CCc1ccc(O)cc1)C(=O)O; Hyp = O=C(O)[C@@H]1C[C@@H](O)CN1; Orn = NCCC[C@H](N)C(=O)O

Columns and labels:
[1] = system: Candida albicans; experiment: Concentration inhibiting Candida beta-1,3-glucan synthesis was determined in a Candida albicans cell culture; type: functional, organism-based
[2] = system: Candida albicans; experiment: Antifungal activity on Candida albicans MY1055.; type: functional
[3] = system: Candida albicans; experiment: Antifungal activity on Candida albicans MY1028.; type: functional
[4] = system: Candida parapsilosis; experiment: Antifungal activity on Candida parapsilosis MY1010; type: functional; conditions: Lodderomyces parapsilosis
[5] = system: Candida tropicalis; experiment: Antifungal activity on Candida tropicalis MY101; type: functional
[6] = system: Candida albicans; experiment: Antifungal activity on Candida albicans MY1208.; type: functional

SMILES: C[C@@H](O)[C@@H]1NC(=O)[C@H](CCc2ccc(O)cc2)NC(=O)[C@@H]2C[C@@H](O)CN2C(=O)[C@H]([C@@H](C)O)NC(=O)[C@@H](N)CCCNC(=O)[C@H]([C@@H](C)O)NC1=O (H-[Orn]T[Hyp][hTyr]TT; lactam 1-C)
- pIC50 [1]: < 5.00
- MFC [2]: 8 µg/mL (≈ 11.3 µM)
- MFC [3]: 8 µg/mL (≈ 11.3 µM)
- MFC [4]: > 128 µg/mL
- MFC [5]: 4 µg/mL (≈ 5.65 µM)
- MFC [6]: 8 µg/mL (≈ 11.3 µM)

SMILES: CCCCCCCCOc1ccc(C(=O)N[C@H]2CCCNC(=O)[C@@H]3CCCN3C(=O)[C@H]([C@@H](C)O)NC(=O)[C@H](Cc3ccc(O)cc3)NC(=O)[C@@H]3CCCN3C(=O)[C@H]([C@@H](C)O)NC2=O)cc1 ({Benzoyl(4-octyloxy)}-[Orn]TPYTP; lactam 1-C)
- pIC50 [1]: < 5.00
- MFC [2]: > 64 µg/mL
- MFC [3]: > 64 µg/mL
- MFC [5]: > 64 µg/mL
- MFC [6]: > 64 µg/mL

SMILES: CCCCCCCCOc1ccc(C(=O)N[C@H]2CCCNC(=O)[C@@H]3C[C@@H](O)CN3C(=O)[C@H]([C@@H](C)O)NC(=O)[C@H](Cc3ccc(O)cc3)NC(=O)[C@@H]3CCCN3C(=O)[C@H]([C@@H](C)O)NC2=O)cc1 ({Benzoyl(4-octyloxy)}-[Orn]TPYT[Hyp]; lactam 1-C)
- pIC50 [1]: < 5.00
- MFC [2]: > 128 µg/mL
- MFC [3]: > 128 µg/mL
- MFC [4]: > 128 µg/mL
- MFC [5]: > 128 µg/mL
- MFC [6]: > 128 µg/mL

SMILES: CCCCCCCCOc1ccc(C(=O)N[C@H]2CCCNC(=O)[C@@H]3CCCN3C(=O)[C@H]([C@@H](C)O)NC(=O)[C@H](CCc3ccc(O)cc3)NC(=O)[C@@H]3CCCN3C(=O)[C@H]([C@@H](C)O)NC2=O)cc1 ({Benzoyl(4-octyloxy)}-[Orn]TP[hTyr]TP; lactam 1-C)
- pIC50 [1]: < 5.00
- MFC [2]: 4 µg/mL (≈ 4.35 µM)
- MFC [4]: > 128 µg/mL
- MFC [5]: 4 µg/mL (≈ 4.35 µM)
- MFC [6]: 4 µg/mL (≈ 4.35 µM)

SMILES: CCCCCCCCOc1ccc(C(=O)N[C@H]2CCCNC(=O)[C@@H]3CCCN3C(=O)[C@H]([C@@H](C)O)NC(=O)[C@H](Cc3ccc(O)cc3)NC(=O)[C@@H]3C[C@@H](O)CN3C(=O)[C@H]([C@@H](C)O)NC2=O)cc1 ({Benzoyl(4-octyloxy)}-[Orn]T[Hyp]YTP; lactam 1-C)
- pIC50 [1]: < 5.00
- MFC [3]: > 128 µg/mL
- MFC [4]: > 128 µg/mL
- MFC [5]: > 128 µg/mL
- MFC [6]: > 128 µg/mL

SMILES: CCCCCCCCOc1ccc(C(=O)N[C@H]2CCCNC(=O)[C@@H]3C[C@@H](O)CN3C(=O)[C@H]([C@@H](C)O)NC(=O)[C@H](Cc3ccc(O)cc3)NC(=O)[C@@H]3C[C@@H](O)CN3C(=O)[C@H]([C@@H](C)O)NC2=O)cc1 ({Benzoyl(4-octyloxy)}-[Orn]T[Hyp]YT[Hyp]; lactam 1-C)
- pIC50 [1]: < 5.00
- MFC [2]: > 128 µg/mL
- MFC [3]: > 128 µg/mL
- MFC [4]: > 128 µg/mL
- MFC [5]: > 128 µg/mL
- MFC [6]: > 128 µg/mL

SMILES: CCCCCCCCOc1ccc(C(=O)N[C@H]2CCCNC(=O)[C@@H]3[C@@H](O)[C@@H](C)CN3C(=O)[C@H]([C@@H](C)O)NC(=O)[C@H](Cc3ccc(O)cc3)NC(=O)[C@@H]3C[C@@H](O)CN3C(=O)[C@H]([C@@H](C)O)NC2=O)cc1 ({Benzoyl(4-octyloxy)}-[Orn]T[Hyp]YT[Pro(3S-OH,4S-Me)]; lactam 1-C)
- MFC [2]: > 128 µg/mL
- MFC [3]: > 128 µg/mL
- MFC [4]: > 128 µg/mL
- MFC [5]: > 128 µg/mL
- MFC [6]: > 128 µg/mL

SMILES: CCCCCCCCOc1ccc(C(=O)N[C@H]2CCCNC(=O)[C@@H]3CCCN3C(=O)[C@H]([C@@H](C)O)NC(=O)[C@H](CCc3ccc(O)cc3)NC(=O)[C@@H]3C[C@@H](O)CN3C(=O)[C@H]([C@@H](C)O)NC2=O)cc1 ({Benzoyl(4-octyloxy)}-[Orn]T[Hyp][hTyr]TP; lactam 1-C)
- pIC50 [1]: 5.00
- MFC [2]: 8 µg/mL (≈ 8.55 µM)
- MFC [3]: 4 µg/mL (≈ 4.27 µM)
- MFC [4]: 8 µg/mL (≈ 8.55 µM)
- MFC [5]: 0.25 µg/mL (≈ 0.267 µM)
- MFC [6]: 4 µg/mL (≈ 4.27 µM)

SMILES: CCCCCCCCOc1ccc(C(=O)N[C@H]2CCCNC(=O)[C@@H]3C[C@@H](O)CN3C(=O)[C@H]([C@@H](C)O)NC(=O)[C@H](CCc3ccc(O)cc3)NC(=O)[C@@H]3C[C@@H](O)CN3C(=O)[C@H]([C@@H](C)O)NC2=O)cc1 ({Benzoyl(4-octyloxy)}-[Orn]T[Hyp][hTyr]T[Hyp]; lactam 1-C)
- pIC50 [1]: 5.00
- MFC [2]: 8 µg/mL (≈ 8.4 µM)
- MFC [3]: 8 µg/mL (≈ 8.4 µM)
- MFC [4]: > 128 µg/mL
- MFC [5]: 8 µg/mL (≈ 8.4 µM)
- MFC [6]: 8 µg/mL (≈ 8.4 µM)

SMILES: CCCCCCCCOc1ccc(C(=O)N[C@H]2CCCNC(=O)[C@@H]3[C@@H](O)[C@@H](C)CN3C(=O)[C@H]([C@@H](C)O)NC(=O)[C@H](CCc3ccc(O)cc3)NC(=O)[C@@H]3C[C@@H](O)CN3C(=O)[C@H]([C@@H](C)O)NC2=O)cc1 ({Benzoyl(4-octyloxy)}-[Orn]T[Hyp][hTyr]T[Pro(3S-OH,4S-Me)]; lactam 1-C)
- pIC50 [1]: 5.52
- MFC [2]: 1 µg/mL (≈ 1.04 µM)
- MFC [3]: 2 µg/mL (≈ 2.07 µM)
- MFC [4]: 8 µg/mL (≈ 8.28 µM)
- MFC [5]: 1 µg/mL (≈ 1.04 µM)
- MFC [6]: 2 µg/mL (≈ 2.07 µM)

SMILES: CCCCCCCCOc1ccc(C(=O)N[C@H]2C[C@@H](O)[C@@H](O)NC(=O)[C@@H]3[C@@H](O)[C@@H](C)CN3C(=O)[C@H]([C@@H](C)O)NC(=O)[C@H]([C@H](O)[C@@H](O)c3ccc(O)cc3)NC(=O)[C@@H]3C[C@@H](O)CN3C(=O)[C@H]([C@@H](C)O)NC2=O)cc1 [CILOFUNGIN] ({Benzoyl(4-octyloxy)}-[Orn(4R-OH,5R-OH)]T[Hyp][hTyr(3S-OH,4S-OH)]T[Pro(3S-OH,4S-Me)]; lactam 1-C)
- pIC50 [1]: 6.00
- MFC [2]: 0.5 µg/mL (≈ 0.485 µM)
- MFC [3]: 0.5 µg/mL (≈ 0.485 µM)
- MFC [4]: 8 µg/mL (≈ 7.77 µM)
- MFC [5]: 0.5 µg/mL (≈ 0.485 µM)
- MFC [6]: 2 µg/mL (≈ 1.94 µM)
